From US10689367B2, “Triazole pyridyl compounds as agonists of the APJ receptor” (AMGEN INC., priority 2016, dated 2020)
pEC50: −log10 of the molar value.

Each compound was assayed against human APJ receptor (Homo sapiens (Human), UniProt P35414) (assay: [35S]GTPγS binding assay on membranes from CHO cells stably expressing human APJ receptor). Conditions: membranes of CHO cells stably expressing human APJ receptor, read-out: Activity hAPJ SPA EC50 IP.
Type: biochemical
How it was run: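 Agonist EC50 values come from non-linear regression of mean data from several independent runs. Membranes of CHO cells stably expressing human APJ were incubated 90 min at room temperature with [35S]GTPγS in buffer with optimized GDP, MgCl2 and NaCl, then read on a microplate imager.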

human APJ receptor, sequence (P35414 whole entry): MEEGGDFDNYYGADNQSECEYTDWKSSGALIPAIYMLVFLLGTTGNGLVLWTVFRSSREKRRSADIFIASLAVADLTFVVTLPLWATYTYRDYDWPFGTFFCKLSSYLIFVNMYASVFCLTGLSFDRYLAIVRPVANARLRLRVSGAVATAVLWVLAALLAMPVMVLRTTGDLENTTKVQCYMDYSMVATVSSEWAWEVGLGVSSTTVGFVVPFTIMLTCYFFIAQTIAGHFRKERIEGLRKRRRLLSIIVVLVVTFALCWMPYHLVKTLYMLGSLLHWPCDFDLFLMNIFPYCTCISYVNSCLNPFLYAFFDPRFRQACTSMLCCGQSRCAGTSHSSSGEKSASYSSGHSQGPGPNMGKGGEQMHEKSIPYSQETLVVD

Compound | pEC50
COc1cccc(-c2nnc(NS(=O)(=O)[C@@H](C)[C@@H](OC(C)C)c3ncc(C)cn3)n2[C@@H](C)c2nc(C)no2)n1 (single isomer, unassigned) [Example 239.0] | 8.59
COc1cccc(-c2nnc(NS(=O)(=O)[C@@H](C)[C@@H](OC(C)C)c3ncc(C)cn3)n2[C@@H](C)c2nc(C)no2)n1 (single isomer, unassigned) [Example 240.0, (1S,2S)-N-(5-(6-methoxy-2-pyridinyl)-4-((1S)-1-(3-methyl-1,2,4-oxadiazol-5-yl)ethyl)-4H-1,2,4-triazol-3-yl)-1-(5-methyl-2-pyrimidinyl)-1-(2-propanyloxy)-2-propanesulfonamide or (1S,2S)-N-(5-(6-methoxy-2-pyridinyl)-4-((1R)-1-(3-methyl-1,2,4-oxadiazol-5-yl)ethyl)-4H-1,2,4-triazol-3-yl)-1-(5-methyl-2-pyrimidinyl)-1-(2-propanyloxy)-2-propanesulfonamide] | 8.70
COc1cccc(-c2nnc(NS(=O)(=O)[C@@H](C)[C@@H](OC(C)C)c3ncc(C)cn3)n2[C@@H](C)c2ncc(C)o2)n1 (single isomer, unassigned) [Example 241.0, (1S,2S)-N-(5-(6-methoxy-2-pyridinyl)-4-((1S)-1-(5-methyl-1,3-oxazol-2-yl)ethyl)-4H-1,2,4-triazol-3-yl)-1-(5-methyl-2-pyrimidinyl)-1-(2-propanyloxy)-2-propanesulfonamide or (1S,2S)-N-(5-(6-methoxy-2-pyridinyl)-4-((1R)-1-(5-methyl-1,3-oxazol-2-yl)ethyl)-4H-1,2,4-triazol-3-yl)-1-(5-methyl-2-pyrimidinyl)-1-(2-propanyloxy)-2-propanesulfonamide] | 8.13
COc1cccc(-c2nnc(NS(=O)(=O)[C@@H](C)[C@@H](OC(C)C)c3ncc(C)cn3)n2[C@@H](C)c2ncc(C)o2)n1 (single isomer, unassigned) [Example 242.0, (1S,2S)-N-(5-(6-methoxy-2-pyridinyl)-4-((1S)-1-(5-methyl-1,3-oxazol-2-yl)ethyl)-4H-1,2,4-triazol-3-yl)-1-(5-methyl-2-pyrimidinyl)-1-(2-propanyloxy)-2-propanesulfonamide or (1S,2S)-N-(5-(6-methoxy-2-pyridinyl)-4-((1S)-1-(5-methyl-1,3-oxazol-2-yl)ethyl)-4H-1,2,4-triazol-3-yl)-1-(5-methyl-2-pyrimidinyl)-1-(2-propanyloxy)-2-propanesulfonamide] | 7.89
COc1cccc(-c2nnc(NS(=O)(=O)[C@@H](C)[C@H](OC)c3ncc(Cl)cn3)n2[C@@H](C)c2noc(C)n2)n1 (single isomer, unassigned) [Example 243.0, (1R,2S)-1-(5-chloro-2-pyrimidinyl)-1-methoxy-N-(5-(6-methoxy-2-pyridinyl)-4-((1S)-1-(5-methyl-1,2,4-oxadiazol-3-yl)ethyl)-4H-1,2,4-triazol-3-yl)-2-propanesulfonamide or (1R,2S)-1-(5-chloro-2-pyrimidinyl)-1-methoxy-N-(5-(6-methoxy-2-pyridinyl)-4-((1R)-1-(5-methyl-1,2,4-oxadiazol-3-yl)ethyl)-4H-1,2,4-triazol-3-yl)-2-propanesulfonamide] | 8.43
COc1cccc(-c2nnc(NS(=O)(=O)[C@@H](C)[C@H](OC)c3ncc(Cl)cn3)n2[C@@H](C)c2noc(C)n2)n1 (single isomer, unassigned) [Example 244.0, (1R,2S)-1-(5-chloro-2-pyrimidinyl)-1-methoxy-N-(5-(6-methoxy-2-pyridinyl)-4-((1R)-1-(5-methyl-1,2,4-oxadiazol-3-yl)ethyl)-4H-1,2,4-triazol-3-yl)-2-propanesulfonamide or (1R,2S)-1-(5-chloro-2-pyrimidinyl)-1-methoxy-N-(5-(6-methoxy-2-pyridinyl)-4-((1S)-1-(5-methyl-1,2,4-oxadiazol-3-yl)ethyl)-4H-1,2,4-triazol-3-yl)-2-propanesulfonamide] | 8.09
COc1cccc(-c2nnc(NS(=O)(=O)[C@@H](C)[C@H](C)c3ncc(Cl)cn3)n2[C@@H](C)c2noc(C)n2)n1 (single isomer, unassigned) [Example 245.0, (2S,3R)-3-(5-chloro-2-pyrimidinyl)-N-(5-(6-methoxy-2-pyridinyl)-4-((1R)-1-(5-methyl-1,2,4-oxadiazol-3-yl)ethyl)-4H-1,2,4-triazol-3-yl)-2-butanesulfonamide or (2S,3R)-3-(5-chloro-2-pyrimidinyl)-N-(5-(6-methoxy-2-pyridinyl)-4-((1S)-1-(5-methyl-1,2,4-oxadiazol-3-yl)ethyl)-4H-1,2,4-triazol-3-yl)-2-butanesulfonamide] | 8.15
COc1cccc(-c2nnc(NS(=O)(=O)[C@@H](C)[C@H](C)c3ncc(Cl)cn3)n2[C@@H](C)c2nc(C)no2)n1 (single isomer, unassigned) [Example 246.0, (2S,3R)-3-(5-chloro-2-pyrimidinyl)-N-(5-(6-methoxy-2-pyridinyl)-4-((1R)-1-(5-methyl-1,2,4-oxadiazol-3-yl)ethyl)-4H-1,2,4-triazol-3-yl)-2-butanesulfonamide or (2S,3R)-3-(5-chloro-2-pyrimidinyl)-N-(5-(6-methoxy-2-pyridinyl)-4-((1S)-1-(5-methyl-1,2,4-oxadiazol-3-yl)ethyl)-4H-1,2,4-triazol-3-yl)-2-butanesulfonamide] | 8.47
COc1cccc(-c2nnc(NS(=O)(=O)[C@@H](C)[C@H](C)c3ncc(Cl)cn3)n2[C@@H](C)c2nc(C)no2)n1 (single isomer, unassigned) [Example 247.0, (2S,3R)-3-(5-chloro-2-pyrimidinyl)-N-(5-(6-methoxy-2-pyridinyl)-4-((1R)-1-(3-methyl-1,2,4-oxadiazol-5-yl)ethyl)-4H-1,2,4-triazol-3-yl)-2-butanesulfonamide or (2S,3R)-3-(5-chloro-2-pyrimidinyl)-N-(5-(6-methoxy-2-pyridinyl)-4-((1S)-1-(3-methyl-1,2,4-oxadiazol-5-yl)ethyl)-4H-1,2,4-triazol-3-yl)-2-butanesulfonamide] | 8.28
COc1cccc(-c2nnc(NS(=O)(=O)[C@@H](C)[C@H](OC)c3ncc(Cl)cn3)n2[C@@H](C)c2ncnn2C)n1 (single isomer, unassigned) [Example 248.0, (1R,2S)-1-(5-chloro-2-pyrimidinyl)-1-methoxy-N-(5-(6-methoxy-2-pyridinyl)-4-((1S)-1-(1-methyl-1H-1,2,4-triazol-5-yl)ethyl)-4H-1,2,4-triazol-3-yl)-2-propanesulfonamide or (1R,2S)-1-(5-chloro-2-pyrimidinyl)-1-methoxy-N-(5-(6-methoxy-2-pyridinyl)-4-((1R)-1-(1-methyl-1H-1,2,4-triazol-5-yl)ethyl)-4H-1,2,4-triazol-3-yl)-2-propanesulfonamide] | 6.57
COc1cccc(-c2nnc(NS(=O)(=O)[C@@H](C)[C@H](OC)c3ncc(Cl)cn3)n2[C@@H](C)c2ncnn2C)n1 (single isomer, unassigned) [Example 249.0, (1R,2S)-1-(5-chloro-2-pyrimidinyl)-1-methoxy-N-(5-(6-methoxy-2-pyridinyl)-4-((1R)-1-(1-methyl-1H-1,2,4-triazol-5-yl)ethyl)-4H-1,2,4-triazol-3-yl)-2-propanesulfonamide or (1R,2S)-1-(5-chloro-2-pyrimidinyl)-1-methoxy-N-(5-(6-methoxy-2-pyridinyl)-4-((1S)-1-(1-methyl-1H-1,2,4-triazol-5-yl)ethyl)-4H-1,2,4-triazol-3-yl)-2-propanesulfonamide] | 8.52
COc1cccc(-c2nnc(NS(=O)(=O)[C@@H](C)[C@H](C)c3ncc(Cl)cn3)n2[C@@H](C)c2ncnn2C)n1 (single isomer, unassigned) [Example 250.0] | 6.43
COc1cccc(-c2nnc(NS(=O)(=O)[C@@H](C)[C@H](C)c3ncc(Cl)cn3)n2[C@@H](C)c2ncnn2C)n1 (single isomer, unassigned) [Example 251.0, (2S,3R)-3-(5-chloro-2-pyrimidinyl)-N-(5-(6-methoxy-2-pyridinyl)-4-((1R)-1-(1-methyl-1H-1,2,4-triazol-5-yl)ethyl)-4H-1,2,4-triazol-3-yl)-2-butanesulfonamide or (2S,3R)-3-(5-chloro-2-pyrimidinyl)-N-(5-(6-methoxy-2-pyridinyl)-4-((1S)-1-(1-methyl-1H-1,2,4-triazol-5-yl)ethyl)-4H-1,2,4-triazol-3-yl)-2-butanesulfonamide] | 8.77
COc1cccc(-c2nnc(NS(=O)(=O)[C@@H](C)[C@@H](OC(C)C)c3ncc(C)cn3)n2[C@@H](C)c2ncnn2C)n1 (single isomer, unassigned) [Example 253.0, (1S,2S)-N-(5-(6-methoxy-2-pyridinyl)-4-((1R)-1-(1-methyl-1H-1,2,4-triazol-5-yl)ethyl)-4H-1,2,4-triazol-3-yl)-1-(5-methyl-2-pyrimidinyl)-1-(2-propanyloxy)-2-propanesulfonamide or (1S,2S)-N-(5-(6-methoxy-2-pyridinyl)-4-((1S)-1-(1-methyl-1H-1,2,4-triazol-5-yl)ethyl)-4H-1,2,4-triazol-3-yl)-1-(5-methyl-2-pyrimidinyl)-1-(2-propanyloxy)-2-propanesulfonamide] | 7.49
COc1cccc(-c2nnc(NS(=O)(=O)[C@@H](C)[C@H](OC)c3ncc(Cl)cn3)n2[C@@H](C)c2ncc(C)o2)n1 (single isomer, unassigned) [Example 255.0, (1R,2S)-1-(5-chloro-2-pyrimidinyl)-1-methoxy-N-(5-(6-methoxy-2-pyridinyl)-4-((1S)-1-(5-methyl-1,3-oxazol-2-yl)ethyl)-4H-1,2,4-triazol-3-yl)-2-propanesulfonamide or (1R,2S)-1-(5-chloro-2-pyrimidinyl)-1-methoxy-N-(5-(6-methoxy-2-pyridinyl)-4-((1R)-1-(5-methyl-1,3-oxazol-2-yl)ethyl)-4H-1,2,4-triazol-3-yl)-2-propanesulfonamide] | 8.12
